{
  "source": "paper PMC11864979",
  "about": "“First-in-class ultralong-target-residence-time p38α inhibitors as a mitosis-targeted therapy for colorectal cancer” (Nature Cancer, 2025)",
  "experiment_in_all_cases": "selectivity profiling in a panel of 340 wild-type kinases (Reaction Biology Europe)",
  "format_in_all_cases": "binding",
  "key": {"340 wild-type kinases [1]": {"target": "T1, 340 wild-type kinases (Homo sapiens, UniProt P35968)", "T1 construct": "purchased Reaction Biology Europe"}, "340 wild-type kinases [2]": {"target": "T2, 340 wild-type kinases (Homo sapiens, UniProt Q86V86)", "T2 construct": "purchased Reaction Biology Europe"}, "340 wild-type kinases [3]": {"target": "T3, 340 wild-type kinases (Homo sapiens, UniProt P49759)", "T3 construct": "purchased Reaction Biology Europe", "T3 sequence (P49759 whole entry)": "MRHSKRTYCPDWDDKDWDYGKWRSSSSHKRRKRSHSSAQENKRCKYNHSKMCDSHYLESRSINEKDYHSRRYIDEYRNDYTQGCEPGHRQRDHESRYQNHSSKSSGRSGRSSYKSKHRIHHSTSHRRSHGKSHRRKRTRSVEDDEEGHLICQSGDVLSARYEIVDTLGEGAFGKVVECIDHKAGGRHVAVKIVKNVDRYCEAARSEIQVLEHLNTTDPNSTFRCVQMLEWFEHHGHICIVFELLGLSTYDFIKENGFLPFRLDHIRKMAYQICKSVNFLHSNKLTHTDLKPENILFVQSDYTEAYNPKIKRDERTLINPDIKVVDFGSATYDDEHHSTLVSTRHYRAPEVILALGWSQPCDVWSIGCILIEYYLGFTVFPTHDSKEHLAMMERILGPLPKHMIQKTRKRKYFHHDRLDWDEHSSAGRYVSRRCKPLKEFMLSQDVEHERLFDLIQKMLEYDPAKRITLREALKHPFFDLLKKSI"}, "340 wild-type kinases [4]": {"target": "T4, 340 wild-type kinases (Homo sapiens, UniProt Q9H2G2)", "T4 construct": "purchased Reaction Biology Europe", "T4 sequence (Q9H2G2 whole entry)": "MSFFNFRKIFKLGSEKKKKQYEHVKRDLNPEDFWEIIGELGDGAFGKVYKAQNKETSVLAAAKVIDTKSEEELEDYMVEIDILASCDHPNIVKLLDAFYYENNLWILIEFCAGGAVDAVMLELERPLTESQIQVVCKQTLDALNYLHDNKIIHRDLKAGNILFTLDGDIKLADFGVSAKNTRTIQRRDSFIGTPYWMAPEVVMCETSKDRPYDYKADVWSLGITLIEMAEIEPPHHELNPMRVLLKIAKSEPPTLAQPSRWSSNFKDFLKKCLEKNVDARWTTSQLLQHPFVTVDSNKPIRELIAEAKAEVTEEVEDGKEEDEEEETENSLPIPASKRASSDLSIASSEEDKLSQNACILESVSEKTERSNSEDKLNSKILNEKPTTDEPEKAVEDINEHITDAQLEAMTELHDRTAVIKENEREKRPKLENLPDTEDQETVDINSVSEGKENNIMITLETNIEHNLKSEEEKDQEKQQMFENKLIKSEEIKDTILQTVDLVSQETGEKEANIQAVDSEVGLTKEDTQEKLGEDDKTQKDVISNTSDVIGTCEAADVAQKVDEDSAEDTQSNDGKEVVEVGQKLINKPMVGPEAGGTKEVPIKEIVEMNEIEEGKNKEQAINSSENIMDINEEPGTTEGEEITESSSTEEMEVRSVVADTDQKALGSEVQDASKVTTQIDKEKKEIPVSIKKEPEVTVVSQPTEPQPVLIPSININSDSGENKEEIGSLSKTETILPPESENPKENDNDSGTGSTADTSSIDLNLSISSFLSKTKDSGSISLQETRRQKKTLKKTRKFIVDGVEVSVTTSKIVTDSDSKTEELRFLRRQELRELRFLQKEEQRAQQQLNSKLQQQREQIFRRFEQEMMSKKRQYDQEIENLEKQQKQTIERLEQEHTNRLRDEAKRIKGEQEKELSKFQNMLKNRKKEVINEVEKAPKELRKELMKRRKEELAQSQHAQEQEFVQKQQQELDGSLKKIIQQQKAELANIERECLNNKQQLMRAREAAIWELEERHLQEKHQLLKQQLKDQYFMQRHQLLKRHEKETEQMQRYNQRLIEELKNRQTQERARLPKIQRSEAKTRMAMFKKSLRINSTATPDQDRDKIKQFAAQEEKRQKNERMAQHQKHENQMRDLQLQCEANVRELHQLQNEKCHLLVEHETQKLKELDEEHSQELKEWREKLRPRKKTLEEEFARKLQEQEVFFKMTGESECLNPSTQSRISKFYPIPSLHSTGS"}, "340 wild-type kinases [5]": {"target": "T5, 340 wild-type kinases (Homo sapiens, UniProt P80192)", "T5 construct": "purchased Reaction Biology Europe"}, "340 wild-type kinases [6]": {"target": "T6, 340 wild-type kinases (Homo sapiens, UniProt P54762)", "T6 construct": "purchased Reaction Biology Europe", "T6 sequence (P54762 18-984)": "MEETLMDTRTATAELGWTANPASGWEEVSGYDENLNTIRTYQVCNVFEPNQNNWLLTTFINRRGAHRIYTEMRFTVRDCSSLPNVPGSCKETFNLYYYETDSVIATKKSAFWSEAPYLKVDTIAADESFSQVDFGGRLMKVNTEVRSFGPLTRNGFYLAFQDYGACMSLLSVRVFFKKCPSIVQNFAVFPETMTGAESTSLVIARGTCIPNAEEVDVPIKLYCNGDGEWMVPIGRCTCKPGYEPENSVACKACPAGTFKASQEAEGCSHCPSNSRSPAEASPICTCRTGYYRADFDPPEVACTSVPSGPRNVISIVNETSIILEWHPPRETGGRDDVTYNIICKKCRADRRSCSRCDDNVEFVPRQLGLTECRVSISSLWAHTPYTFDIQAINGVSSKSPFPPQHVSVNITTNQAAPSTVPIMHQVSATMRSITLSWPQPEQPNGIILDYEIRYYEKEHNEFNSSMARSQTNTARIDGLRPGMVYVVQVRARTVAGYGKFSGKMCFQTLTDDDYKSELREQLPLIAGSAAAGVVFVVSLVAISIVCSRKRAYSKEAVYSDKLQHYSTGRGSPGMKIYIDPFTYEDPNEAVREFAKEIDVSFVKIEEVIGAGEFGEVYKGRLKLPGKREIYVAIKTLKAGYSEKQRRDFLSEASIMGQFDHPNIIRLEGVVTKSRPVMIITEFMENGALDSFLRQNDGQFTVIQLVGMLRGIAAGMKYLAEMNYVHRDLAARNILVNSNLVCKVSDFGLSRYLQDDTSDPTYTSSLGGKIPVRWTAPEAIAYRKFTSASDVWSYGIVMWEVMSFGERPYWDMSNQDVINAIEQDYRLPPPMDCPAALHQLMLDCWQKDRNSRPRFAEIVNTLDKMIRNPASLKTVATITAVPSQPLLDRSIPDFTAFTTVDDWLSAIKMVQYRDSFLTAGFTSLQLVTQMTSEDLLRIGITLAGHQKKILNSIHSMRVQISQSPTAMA"}, "340 wild-type kinases [7]": {"target": "T7, 340 wild-type kinases (Homo sapiens, UniProt Q9UBS0)", "T7 construct": "purchased Reaction Biology Europe", "T7 sequence (Q9UBS0 whole entry)": "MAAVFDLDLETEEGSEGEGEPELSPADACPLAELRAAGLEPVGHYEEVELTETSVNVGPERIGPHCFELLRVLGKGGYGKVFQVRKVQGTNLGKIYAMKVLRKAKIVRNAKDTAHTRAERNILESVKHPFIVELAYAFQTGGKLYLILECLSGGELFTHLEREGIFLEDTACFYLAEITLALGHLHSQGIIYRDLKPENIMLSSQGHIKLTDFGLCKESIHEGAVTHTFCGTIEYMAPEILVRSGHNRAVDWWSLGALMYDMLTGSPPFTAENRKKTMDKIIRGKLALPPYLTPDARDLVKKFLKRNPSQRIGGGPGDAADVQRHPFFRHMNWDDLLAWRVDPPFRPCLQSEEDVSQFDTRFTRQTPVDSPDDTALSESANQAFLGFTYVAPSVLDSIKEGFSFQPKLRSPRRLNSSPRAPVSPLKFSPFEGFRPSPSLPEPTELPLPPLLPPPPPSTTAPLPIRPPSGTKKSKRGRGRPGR"}, "340 wild-type kinases [8]": {"target": "T8, 340 wild-type kinases (Homo sapiens, UniProt Q9Y5S2)", "T8 construct": "purchased Reaction Biology Europe", "T8 sequence (Q9Y5S2 whole entry)": "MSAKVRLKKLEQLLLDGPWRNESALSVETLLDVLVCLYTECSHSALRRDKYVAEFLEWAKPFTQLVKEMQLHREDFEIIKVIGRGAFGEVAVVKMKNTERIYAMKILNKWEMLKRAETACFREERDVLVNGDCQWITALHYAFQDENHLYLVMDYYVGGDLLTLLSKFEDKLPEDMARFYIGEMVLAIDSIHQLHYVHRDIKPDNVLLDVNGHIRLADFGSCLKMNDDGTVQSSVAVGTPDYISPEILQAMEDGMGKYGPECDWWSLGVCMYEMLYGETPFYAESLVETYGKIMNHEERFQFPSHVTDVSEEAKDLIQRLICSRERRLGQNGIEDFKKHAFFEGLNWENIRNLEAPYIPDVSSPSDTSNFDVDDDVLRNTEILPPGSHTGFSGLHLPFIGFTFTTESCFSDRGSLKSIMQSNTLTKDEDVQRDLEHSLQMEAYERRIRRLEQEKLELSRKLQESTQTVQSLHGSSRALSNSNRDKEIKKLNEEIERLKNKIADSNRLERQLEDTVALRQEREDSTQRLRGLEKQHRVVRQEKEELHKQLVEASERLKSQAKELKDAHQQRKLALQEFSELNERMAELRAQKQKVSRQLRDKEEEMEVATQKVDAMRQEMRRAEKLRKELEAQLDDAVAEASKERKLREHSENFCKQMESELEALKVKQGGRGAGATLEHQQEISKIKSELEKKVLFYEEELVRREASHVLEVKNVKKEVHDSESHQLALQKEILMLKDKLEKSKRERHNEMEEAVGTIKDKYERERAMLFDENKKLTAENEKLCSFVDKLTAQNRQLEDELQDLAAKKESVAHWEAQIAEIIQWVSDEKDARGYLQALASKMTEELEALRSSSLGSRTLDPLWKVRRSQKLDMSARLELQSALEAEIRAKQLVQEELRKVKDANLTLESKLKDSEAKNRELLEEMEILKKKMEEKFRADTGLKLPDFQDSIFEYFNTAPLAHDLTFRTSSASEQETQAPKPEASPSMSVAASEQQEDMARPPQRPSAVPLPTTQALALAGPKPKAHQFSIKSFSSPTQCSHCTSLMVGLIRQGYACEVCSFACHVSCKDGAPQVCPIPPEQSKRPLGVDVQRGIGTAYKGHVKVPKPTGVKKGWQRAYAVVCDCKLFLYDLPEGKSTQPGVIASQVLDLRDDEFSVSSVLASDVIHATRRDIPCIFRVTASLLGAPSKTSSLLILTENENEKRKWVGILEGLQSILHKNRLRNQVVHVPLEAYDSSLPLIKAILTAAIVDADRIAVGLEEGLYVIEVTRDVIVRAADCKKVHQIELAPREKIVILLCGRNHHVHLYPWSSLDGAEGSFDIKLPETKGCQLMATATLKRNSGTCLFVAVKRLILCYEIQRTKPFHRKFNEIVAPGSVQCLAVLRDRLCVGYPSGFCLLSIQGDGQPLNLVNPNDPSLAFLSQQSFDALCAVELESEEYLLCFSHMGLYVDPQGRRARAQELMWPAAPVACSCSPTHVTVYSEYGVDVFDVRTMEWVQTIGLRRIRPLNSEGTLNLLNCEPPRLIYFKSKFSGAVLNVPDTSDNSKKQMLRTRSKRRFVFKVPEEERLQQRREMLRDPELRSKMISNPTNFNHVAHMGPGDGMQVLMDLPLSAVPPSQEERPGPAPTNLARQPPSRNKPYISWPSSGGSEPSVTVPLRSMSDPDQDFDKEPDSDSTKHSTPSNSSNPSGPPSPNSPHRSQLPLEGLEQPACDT"}, "340 wild-type kinases [9]": {"target": "T9, 340 wild-type kinases (Homo sapiens, UniProt P42685)", "T9 construct": "purchased Reaction Biology Europe", "T9 sequence (P42685 whole entry)": "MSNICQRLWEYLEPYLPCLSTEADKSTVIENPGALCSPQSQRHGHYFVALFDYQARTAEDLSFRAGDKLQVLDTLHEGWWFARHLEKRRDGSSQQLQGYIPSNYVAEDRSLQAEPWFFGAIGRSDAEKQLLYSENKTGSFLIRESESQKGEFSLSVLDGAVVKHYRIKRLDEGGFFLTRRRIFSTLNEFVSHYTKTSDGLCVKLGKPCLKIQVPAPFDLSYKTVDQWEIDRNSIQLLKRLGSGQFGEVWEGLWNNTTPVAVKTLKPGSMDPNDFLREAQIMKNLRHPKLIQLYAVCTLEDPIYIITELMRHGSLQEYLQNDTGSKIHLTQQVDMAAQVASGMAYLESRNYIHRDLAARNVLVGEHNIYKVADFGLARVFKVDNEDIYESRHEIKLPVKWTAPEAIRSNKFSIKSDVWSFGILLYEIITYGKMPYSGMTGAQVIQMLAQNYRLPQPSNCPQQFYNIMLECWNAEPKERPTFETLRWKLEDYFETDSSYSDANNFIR"}, "340 wild-type kinases [10]": {"target": "T10, 340 wild-type kinases (Homo sapiens, UniProt Q13177)", "T10 construct": "purchased Reaction Biology Europe", "T10 sequence (Q13177 whole entry)": "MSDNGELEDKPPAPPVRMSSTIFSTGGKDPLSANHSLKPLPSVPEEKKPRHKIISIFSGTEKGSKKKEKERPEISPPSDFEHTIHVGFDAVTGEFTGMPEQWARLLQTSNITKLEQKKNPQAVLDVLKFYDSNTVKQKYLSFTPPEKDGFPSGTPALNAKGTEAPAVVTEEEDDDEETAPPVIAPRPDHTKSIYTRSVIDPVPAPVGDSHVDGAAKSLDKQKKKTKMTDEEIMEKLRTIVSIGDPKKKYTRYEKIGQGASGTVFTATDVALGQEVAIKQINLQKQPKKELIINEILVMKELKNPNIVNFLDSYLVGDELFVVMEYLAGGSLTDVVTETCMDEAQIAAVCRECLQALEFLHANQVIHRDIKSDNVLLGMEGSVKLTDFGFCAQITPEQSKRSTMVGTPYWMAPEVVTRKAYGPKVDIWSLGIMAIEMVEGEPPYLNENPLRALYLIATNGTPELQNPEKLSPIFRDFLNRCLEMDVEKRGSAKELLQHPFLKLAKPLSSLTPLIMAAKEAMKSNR"}, "340 wild-type kinases [11]": {"target": "T11, 340 wild-type kinases (Homo sapiens, UniProt O75116)", "T11 construct": "purchased Reaction Biology Europe"}, "340 wild-type kinases [12]": {"target": "T12, 340 wild-type kinases (Homo sapiens, UniProt P36896)", "T12 construct": "purchased Reaction Biology Europe", "T12 sequence (P36896 24-505)": "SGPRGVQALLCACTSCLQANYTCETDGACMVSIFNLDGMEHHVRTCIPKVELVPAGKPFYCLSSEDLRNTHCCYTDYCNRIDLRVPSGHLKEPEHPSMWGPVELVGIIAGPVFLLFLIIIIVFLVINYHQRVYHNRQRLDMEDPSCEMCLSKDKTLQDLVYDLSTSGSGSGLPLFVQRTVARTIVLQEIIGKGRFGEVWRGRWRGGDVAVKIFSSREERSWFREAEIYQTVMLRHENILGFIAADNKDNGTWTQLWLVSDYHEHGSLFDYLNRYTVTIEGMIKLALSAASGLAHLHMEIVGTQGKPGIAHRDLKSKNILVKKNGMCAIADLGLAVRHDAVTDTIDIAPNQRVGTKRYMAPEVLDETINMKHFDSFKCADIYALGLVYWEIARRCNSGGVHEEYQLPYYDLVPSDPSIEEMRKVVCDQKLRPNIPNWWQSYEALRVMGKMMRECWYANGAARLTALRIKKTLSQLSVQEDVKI"}},
  "note": "Where two headings read alike, the source gives them in different places.",
  "data": [
    {"smiles": "CNC(=O)c1ccc2c(c1)C(=O)c1ccc(Nc3ccc(F)c(NC(=O)C4CC4)c3)cc1CC2", "note": "[Compound 2015]", "values": [
      {"measurement": "remaining activity at 0.2 µM", "setting": "340 wild-type kinases [1]; 0.2 µM 2015, read-out: VEGFR2 residual activity", "result": 86.7, "unit": "%"},
      {"measurement": "remaining activity at 1 µM", "setting": "340 wild-type kinases [1]; 1 µM 2015, read-out: VEGFR2 residual activity", "result": 96.7, "unit": "%"},
      {"measurement": "remaining activity at 0.2 µM", "setting": "340 wild-type kinases [1]; VEGFR2, 0.2 µM, read-out: residual activity", "result": 86.7, "unit": "%"},
      {"measurement": "remaining activity at 1 µM", "setting": "340 wild-type kinases [1]; VEGFR2, 1 µM, read-out: residual activity", "result": 96.7, "unit": "%"},
      {"measurement": "remaining activity at 0.2 µM", "setting": "340 wild-type kinases [2]; 0.2 µM 2015, read-out: PIM3 residual activity", "result": 95.8, "unit": "%"},
      {"measurement": "remaining activity at 1 µM", "setting": "340 wild-type kinases [2]; 1 µM 2015, read-out: PIM3 residual activity", "result": 92.3, "unit": "%"},
      {"measurement": "remaining activity at 0.2 µM", "setting": "340 wild-type kinases [2]; PIM3, 0.2 µM, read-out: residual activity", "result": 95.8, "unit": "%"},
      {"measurement": "remaining activity at 1 µM", "setting": "340 wild-type kinases [2]; PIM3, 1 µM, read-out: residual activity", "result": 92.2, "unit": "%"},
      {"measurement": "remaining activity at 0.2 µM", "setting": "340 wild-type kinases [3]; 0.2 µM 2015, read-out: CLK1 residual activity", "result": 98.6, "unit": "%"},
      {"measurement": "remaining activity at 1 µM", "setting": "340 wild-type kinases [3]; 1 µM 2015, read-out: CLK1 residual activity", "result": 93, "unit": "%"},
      {"measurement": "remaining activity at 0.2 µM", "setting": "340 wild-type kinases [3]; CLK1, 0.2 µM, read-out: residual activity", "result": 98.6, "unit": "%"},
      {"measurement": "remaining activity at 1 µM", "setting": "340 wild-type kinases [3]; CLK1, 1 µM, read-out: residual activity", "result": 93, "unit": "%"},
      {"measurement": "remaining activity at 0.2 µM", "setting": "340 wild-type kinases [4]; 0.2 µM 2015, read-out: SLK residual activity", "result": 75, "unit": "%"},
      {"measurement": "remaining activity at 1 µM", "setting": "340 wild-type kinases [4]; 1 µM 2015, read-out: SLK residual activity", "result": 75.3, "unit": "%"},
      {"measurement": "remaining activity at 0.2 µM", "setting": "340 wild-type kinases [4]; SLK, 0.2 µM, read-out: residual activity", "result": 75, "unit": "%"},
      {"measurement": "remaining activity at 1 µM", "setting": "340 wild-type kinases [4]; SLK, 1 µM, read-out: residual activity", "result": 75.3, "unit": "%"},
      {"measurement": "remaining activity at 0.2 µM", "setting": "340 wild-type kinases [5]; 0.2 µM 2015, read-out: MAP3K9 residual activity", "result": 114, "unit": "%"},
      {"measurement": "remaining activity at 1 µM", "setting": "340 wild-type kinases [5]; 1 µM 2015, read-out: MAP3K9 residual activity", "result": 96.4, "unit": "%"},
      {"measurement": "remaining activity at 0.2 µM", "setting": "340 wild-type kinases [5]; MAP3K9, 0.2 µM, read-out: residual activity", "result": 114, "unit": "%"},
      {"measurement": "remaining activity at 1 µM", "setting": "340 wild-type kinases [5]; MAP3K9, 1 µM, read-out: residual activity", "result": 96.4, "unit": "%"},
      {"measurement": "remaining activity at 0.2 µM", "setting": "340 wild-type kinases [6]; 0.2 µM 2015, read-out: EPHB1 residual activity", "result": 118, "unit": "%"},
      {"measurement": "remaining activity at 1 µM", "setting": "340 wild-type kinases [6]; 1 µM 2015, read-out: EPHB1 residual activity", "result": 103, "unit": "%"},
      {"measurement": "remaining activity at 0.2 µM", "setting": "340 wild-type kinases [6]; EPHB1, 0.2 µM, read-out: residual activity", "result": 118, "unit": "%"},
      {"measurement": "remaining activity at 1 µM", "setting": "340 wild-type kinases [6]; EPHB1, 1 µM, read-out: residual activity", "result": 103, "unit": "%"},
      {"measurement": "remaining activity at 0.2 µM", "setting": "340 wild-type kinases [7]; 0.2 µM 2015, read-out: S6Kbeta residual activity", "result": 108, "unit": "%"},
      {"measurement": "remaining activity at 1 µM", "setting": "340 wild-type kinases [7]; 1 µM 2015, read-out: S6Kbeta residual activity", "result": 109, "unit": "%"},
      {"measurement": "remaining activity at 0.2 µM", "setting": "340 wild-type kinases [7]; S6Kbeta, 0.2 µM, read-out: residual activity", "result": 108, "unit": "%"},
      {"measurement": "remaining activity at 1 µM", "setting": "340 wild-type kinases [7]; S6Kbeta, 1 µM, read-out: residual activity", "result": 109, "unit": "%"},
      {"measurement": "remaining activity at 0.2 µM", "setting": "340 wild-type kinases [8]; 0.2 µM 2015, read-out: CDC42BPB residual activity", "result": 101, "unit": "%"},
      {"measurement": "remaining activity at 1 µM", "setting": "340 wild-type kinases [8]; 1 µM 2015, read-out: CDC42BPB residual activity", "result": 93.2, "unit": "%"},
      {"measurement": "remaining activity at 0.2 µM", "setting": "340 wild-type kinases [8]; CDC42BPB, 0.2 µM, read-out: residual activity", "result": 101, "unit": "%"},
      {"measurement": "remaining activity at 1 µM", "setting": "340 wild-type kinases [8]; CDC42BPB, 1 µM, read-out: residual activity", "result": 93.2, "unit": "%"},
      {"measurement": "remaining activity at 0.2 µM", "setting": "340 wild-type kinases [9]; 0.2 µM 2015, read-out: FRK residual activity", "result": 126, "unit": "%"},
      {"measurement": "remaining activity at 1 µM", "setting": "340 wild-type kinases [9]; 1 µM 2015, read-out: FRK residual activity", "result": 110, "unit": "%"},
      {"measurement": "remaining activity at 0.2 µM", "setting": "340 wild-type kinases [9]; FRK, 0.2 µM, read-out: residual activity", "result": 126, "unit": "%"},
      {"measurement": "remaining activity at 1 µM", "setting": "340 wild-type kinases [9]; FRK, 1 µM, read-out: residual activity", "result": 110, "unit": "%"},
      {"measurement": "remaining activity at 0.2 µM", "setting": "340 wild-type kinases [10]; 0.2 µM 2015, read-out: PAK2 residual activity", "result": 103, "unit": "%"},
      {"measurement": "remaining activity at 1 µM", "setting": "340 wild-type kinases [10]; 1 µM 2015, read-out: PAK2 residual activity", "result": 102, "unit": "%"},
      {"measurement": "remaining activity at 0.2 µM", "setting": "340 wild-type kinases [10]; PAK2, 0.2 µM, read-out: residual activity", "result": 103, "unit": "%"},
      {"measurement": "remaining activity at 1 µM", "setting": "340 wild-type kinases [10]; PAK2, 1 µM, read-out: residual activity", "result": 102, "unit": "%"},
      {"measurement": "remaining activity at 0.2 µM", "setting": "340 wild-type kinases [11]; 0.2 µM 2015, read-out: ROCK2 residual activity", "result": 89, "unit": "%"},
      {"measurement": "remaining activity at 1 µM", "setting": "340 wild-type kinases [11]; 1 µM 2015, read-out: ROCK2 residual activity", "result": 86.3, "unit": "%"},
      {"measurement": "remaining activity at 0.2 µM", "setting": "340 wild-type kinases [11]; ROCK2, 0.2 µM, read-out: residual activity", "result": 89, "unit": "%"},
      {"measurement": "remaining activity at 1 µM", "setting": "340 wild-type kinases [11]; ROCK2, 1 µM, read-out: residual activity", "result": 86.3, "unit": "%"},
      {"measurement": "remaining activity at 0.2 µM", "setting": "340 wild-type kinases [12]; 0.2 µM 2015, read-out: ACVR1B residual activity", "result": 101, "unit": "%"},
      {"measurement": "remaining activity at 0.2 µM", "setting": "340 wild-type kinases [12]; ACVR1B, 0.2 µM, read-out: residual activity", "result": 101, "unit": "%"},
      {"measurement": "remaining activity at 1 µM", "setting": "340 wild-type kinases [12]; ACVR1B, 1 µM, read-out: residual activity", "result": 86.1, "unit": "%"}
    ]}
  ]
}
